Test results from US20130295179A1, “NOVEL OMEGA-3 AND OMEGA-6 FATTY ACID COMPOSITIONS AND USES THEREOF” (priority 2010, published 2013).
Several values for one entry are separate records, joined by “and”; a condition that tells them apart may be missing. Equal values may be shown once.

Legend:
Assay type in all cases: in vivo, human
[1] = test system: Newly diagnosed ADHD children; experiment: RCT of omega-3/6 alone or in combination with methylphenidate, one year follow-up (Example 6); settings: evaluated by the parents
Procedure: Newly diagnosed ADHD children of both genders, 6 to 12 years old, were included in a RCT with one year follow-up in a 3-arm design (A: Omega-3/6; B: Omega 3/6+MTP; and C: MTP). The omega-3/6 fatty acid dosage used was EPA/DHA/GLA (9:3:1) in a total of 792 mg/day (Equazen™). MTP was prescribed in a dosage of 1 mg/kg/day (titration).
The ADHD diagnosis and follow up were made using the Diagnostic and Statistical Manual of Mental Disorders fourth edition (DSM-IV) scale, the ADHD Rating Scale Spanish version (ADHD-RS-VE), and the CEAL (Latin-American scale for ADHD) and overall clinical impression (CGI). For clinically meaningful response, a reduction of at least 25% of the symptoms was used. The adverse events (AE) were evaluated by the parents based on the impact on the patients.

[2] = test system: children between 6 and 12 years of age with a newly diagnosed ADHD; experiment: ADHD Rating Scale Spanish version (parent ADHD-RS-SV), randomized pilot trial (Example 7)
Procedure: (§1) The trial was performed at the Neurology Department of the Hospital Infantil de México Federico Gomez (Health National Institute for children's in Mexico) as a randomized pilot trial. Three treatment groups were compared: group A: MTP; group B: Omega 3/6; group C: MTP+Omega 3/6. Subjects were randomized to one of these groups after screening. After inclusion to the trial, the subjects underwent three different trial periods: the 4 weeks titration period (only for the group A and group C in relation to the MTP), the 12 months evaluation period and the 6 months follow up period (FIG. 1)
(§2) A total of 107 children between 6 and 12 years of age with a newly diagnosed ADHD entered the screening phase of the trial. The presence of any previous ADHD treatment was an exclusion criterion. 17 children were screening failures and could not be included to the trial. After written informed consent by the parents or tutors of the children, a total of 90 patients were distributed to the three groups following a randomization to the three groups against a set of arbitrary numbers.
Inclusion criteria: Patients from 6 to 12 years old, diagnosed as having attention-deficit hyperactivity disorder by the DSM-IV, agreement to take part in the survey (letter of informed consent signed by the parent or tutor and letter of acknowledgement). Exclusion criteria: any Axis I psychiatric diagnosis other than ADHD except oppositional defiant behaviour disorder, neurological deficit, seizures or tics; previous treatment of suitable doses of methylphenidate; patients with known hypersensitivity to omega-3.
(§3) The omega-3/omega6 fatty acid supplement was used. The daily dosage of this omega 3/6 was of three capsules twice daily, corresponding to a daily dose of 558 mg EPA, 174 mg DHA and 60 mg gamma-linolenic. This specific product was chosen because it was the product and the daily dosage used in three previous clinical studies showing significant positive improvements on ADHD related symptoms without showing significant adverse events.
(§4) The stimulant used in this trial was short or long acting methylphenidate (hereafter termed MTP). The daily dose was calculated to start at a concentration of 0.5 mg/kg/day to reach a maximum of 1 mg/kg/day depending on the response and the tolerance. The doses were adjusted weekly.
(§5) Clinical assessments were made at four time points: at baseline, after 3 months, after 6 months and after 12 months. The study consisted in six stages with a total of 12 visits including the screening visit (screening visit 0) and the period of selection and titration of the medication in the case of the group A & C (first 4 weeks). At baseline all the included patients were newly diagnosed with ADHD being drug-naïve (no previous treatment with omega 3/6, MTP or atomoxetine was permitted). ADHD diagnosis was made for patients who met DMS-IV criteria of any subtype and by using the ADHD-RS-VE (Spanish version) and the CEAL (Latin American scale for ADHD). The presence of any associated condition (comorbidity) was assessed by clinical interview according to DSM-IV criteria. The investigator made a medical evaluation, including weight, height, cephalic perimeter, neurological evaluation, sleep patrons and other comorbidities. A questionnaire for the symptoms of fatty acids deficiency was applied, where 0 means without symptoms and 3 with a high degree of symptoms. We analyzed blood samples for biometry hematic and hepatic function.
(§6) For clinically meaningful response, definition of clinical trials with ADHD medications was used, that is: a reduction of at least 25% of the symptoms scores on the ADHD-RS scale. The other important variable was the permanence time in the study measuring efficacy and tolerability. The overall clinical impression of symptom severity and functional impairment was measured with the CGI severity scale, which is a clinician rating of the patient's symptom severity related to the clinician's total experience with ADHD patients. […]

[3] = test system: children between 6 and 12 years of age with a newly diagnosed ADHD; experiment: Clinical Global Impression (CGI) severity, randomized pilot trial (Example 7)
Procedure: as §1, §2, §3, §4, §5, §6

[4] = test system: children between 6 and 12 years of age with a newly diagnosed ADHD; experiment: Side effects / adverse events, randomized pilot trial (Example 7)
Procedure: as §1, §2, §3, §4
The patients was evaluated at baseline including a physical examination, including height and weight, pulse and blood pressure, a neuromotor examination and assessment of the general level of functioning with CGI. We evaluated each week for the first four weeks and each month for a year. The adverse events (AE) were evaluated at any clinic event appointed by the parents and with an impact over the patients, independently if it was associated or not with the medication. This includes exacerbation of the preexistence symptoms. It was important to note the moment of these AE.

[5] = test system: children between 6 and 12 years of age with a newly diagnosed ADHD; experiment: Continuity in the study, withdrawals and MTP dose needed, randomized pilot trial (Example 7); settings: 12 months, n = 30 per group
Procedure: The trial was performed at the Neurology Department of the Hospital Infantil de México Federico Gomez (Health National Institute for children's in Mexico) as a randomized pilot trial. Three treatment groups were compared: group A: MTP; group B: Omega 3/6; group C: MTP+Omega 3/6. Subjects were randomized to one of these groups after screening. After inclusion to the trial, the subjects underwent three different trial periods: the 4 weeks titration period (only for the group A and group C in relation to the MTP), the 12 months evaluation period and the 6 months follow up period (FIG. 1) […]
The stimulant used in this trial was short or long acting methylphenidate (hereafter termed MTP). The daily dose was calculated to start at a concentration of 0.5 mg/kg/day to reach a maximum of 1 mg/kg/day depending on the response and the tolerance. […]
For clinically meaningful response, definition of clinical trials with ADHD medications was used, that is: a reduction of at least 25% of the symptoms scores on the ADHD-RS scale. […] The overall clinical impression of symptom severity and functional impairment was measured with the CGI severity scale, which is a clinician rating of the patient's symptom severity related to the clinician's total experience with ADHD patients. […]

[6] = in % of the subjects, n = 30 per group

## COC(=O)C(c1ccccc1)C1CCCCN1 (stereo not drawn) [MTP, methylphenidate]
[1]
  most frequent AE: weight reduction, hyporexia, and anxiety
[2]; after one month treatment
  ADHD RS total score after one month: 27.6±4.97
[2]; comparison of the three treatments
  response of the hyperactivity symptom: greater impact
[2]; mean, after 3 months
  ADHD RS, total score, After 3 months: 25.29 ± 4.18
  Hyperactive/impulsive subscale, After 3 months: 13.25±3.05
  Inattentive subscale, After 3 months: 12.04±1.78
[2]; mean, after 12 months
  ADHD RS, total score, After 12 months: 23.55 ± 1.72
  Hyperactive/impulsive subscale, After 12 months: 12.1±1.29
  Inattentive subscale, After 12 months: 11.45±1.32
[2]; mean, baseline
  ADHD RS, total score, Baseline: 41.43±4.32 and 41.43 ± 4.39
  Hyperactive/impulsive subscale, Baseline: 19.93±5.11
  Inattentive subscale, Baseline: 21.47±3.20
[3]; from marked/severe before the treatment
  CGI severity category reached after treatment: mild/moderate
[3]; scale 1 (normal) to 7, baseline mean
  investigator rated CGI, baseline: 6.30±0.65
[3]; scale 1 to 7, 1 month
  investigator rated CGI, first treatment month: 3.67±1.21
[3]; scale 1 to 7, 3 months
  investigator rated CGI severity at 3 months: 4.42±1.02
[3]; scale 1 to 7, 6 months
  investigator rated CGI severity at 6 months: 3.75±0.44 and 3.90±0.45
[4]; [6]
  Headache: 23.3%
  Hiporexia: 53.3%
  Irritability: 16.7%
  Pallor: 16.7%
  Palpitation: 13.3%
  Seasickness: 1.0%
  Sleeplessness: 6.7%
  Tension: 16.7%
  Tics: 6.7%
  Tremor: 1.0%
[4]; of 30 per group
  hyporexia, number of patients: 16 patients
[5]
  patients who left the study because of side effects: 6 patients
  patients who withdrew for lack of efficacy: 2 patients
